Measurements taken from US6635641B2 (Agouron Pharmaceuticals, Inc., priority 2000, dated 2003).
Structures can show the parent of a compound that is named as a salt. Where two headings read alike, the source gives them in different places.

Experiments:
[1] = target: T1, FGF-R1 intracellular kinase domain (Homo sapiens, UniProt P11362, C488A/C584S/L457V); assay: FGF-R spectrophotometric assay; type: biochemical; details: for inhibition at 1 µM: read-out: FGF-P percent inhibition;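 on all read-outs here: coupled PK/LDH enzyme assay: ADP from kinase phosphoryl transfer drives NADH oxidation, read as absorbance decrease at 340 nm, with 2 mM ATP and poly(E4Y1) substrate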
T1 construct: starting from the endogenous methionine residue 456 to glutamate 766; made in house; host or cells: baculovirus expression system

[2] = target: T2, unphosphorylated VEGF-R2Δ50 (FLVK) (Homo sapiens, UniProt P35968, DEL940-989/E990V); assay: VEGF-R2 coupled spectrophotometric assay, unphosphorylated construct (FLVK); type: biochemical; details: for inhibition at 0.05 µM: @ 50 nM, read-out: FLVK percent inhibition;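 on all read-outs here: Baculovirus-expressed cytosolic kinase domain, ADP formation linked via pyruvate kinase and lactate dehydrogenase to NADH oxidation, read as falling absorbance at 340 nm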
T2 construct: VEGF-R2Δ50 contains residues 806-939 and 990-1171; made in house; host or cells: baculovirus/insect cells

[3] = tested on: human umbilical vein endothelial cells (HUVEC); assay: HUVEC proliferation assay (VEGF-stimulated, MTT); type: cell-based; details: Homo sapiens
In short: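 Proliferation measured by MTT reduction (4 h exposure, absorbance at 595) 72 hours after VEGF stimulation (final 6 ng/ml). Compound added to 24 h-starved HUVEC in F12K with 1% FBS and 0.1% final DMSO, one hour before the growth factor.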

LCK tyrosine kinase = target: T3, LCK tyrosine kinase (Homo sapiens, UniProt P06239, C224D/P223M); assay: LCK spectrophotometric assay; type: biochemical; details: for Ki: read-out: LCK-P Ki;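 on all read-outs here: recombinant LCK kinase activity on poly(E4Y1), ADP formation coupled through PK/LDH to NADH oxidation, followed as absorbance loss at 340 nm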
T3 construct: starting from amino acid residue 223 to the end of the protein at residue 509; made in house; host or cells: insect cells

[4] = tested on: lung cancer cells (line MV522); assay: Cancer cell proliferation (MV522) assay (MTT); type: cell-based
Description: The protocol for assessing cellular proliferation in cancer cells is similar to that used for assessments in HUVEC cells. Two thousand lung cancer cells (line MV522, acquired from American Tissue Cultural Collection) were seeded in growth media (RPMI1640 medium supplemented with 2 mM glutamine and 10% FBS). Cells are allowed to attach for 1 day prior to addition of test agents and/or vehicles. Cells are treated simultaneously with the same test agents used in the HUVEC assay. Cellular proliferation is quantified by MTT dye reduction assay 72 hours after exposure to test agents. The total length of the assay is 4 days vs. 5 for HUVEC cells because MV522 cells are not exposed to starvation medium.

[5] = target: T4, phosphorylated VEGF-R2Δ50 (FLVK-P) (Homo sapiens, UniProt P35968, DEL940-989/E990V); assay: VEGF-R2 coupled spectrophotometric assay, phosphorylated construct (FLVK-P); type: biochemical
T4 construct: VEGF-R2Δ50 contains residues 806-939 and 990-1171; made in house; host or cells: baculovirus/insect cells
In short: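 Continuous PK/LDH-coupled spectrophotometric read (NADH loss at 340 nm) with 5–40 nM enzyme in 200 mM Hepes pH 7.5. Phosphorylated construct run at 1 mM ATP, 25 mM MgCl2, 5.1 mM poly(E4Y1); unphosphorylated at 3 mM ATP, 60 mM MgCl2 plus 2 mM MnCl2, 20 mM poly(E4Y1). Ki values derived from varied inhibitor concentrations.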

[6] = HUVEC, with albumin, read-out: Huvec + Albumin IC50
[7] = read-out: LCK-P percent inhibition
[8] = unphosphorylated VEGF-R2 construct
[9] = HUVEC proliferation with albumin, read-out: Huvec + Albumin IC50
[10] = VEGF-stimulated HUVEC proliferation, read-out: HUVEC IC50

T4 sequence (P35968 with tags, fused parts or gaps DEL940-989/E990V limits assumed): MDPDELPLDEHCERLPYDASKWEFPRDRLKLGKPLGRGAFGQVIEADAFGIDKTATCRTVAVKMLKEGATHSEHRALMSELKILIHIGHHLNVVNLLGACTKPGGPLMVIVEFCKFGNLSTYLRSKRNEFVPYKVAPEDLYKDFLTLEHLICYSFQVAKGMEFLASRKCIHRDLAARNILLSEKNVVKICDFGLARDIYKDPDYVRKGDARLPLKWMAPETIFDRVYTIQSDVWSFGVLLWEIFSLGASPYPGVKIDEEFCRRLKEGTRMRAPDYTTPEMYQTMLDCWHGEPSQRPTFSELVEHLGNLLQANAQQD
T2 sequence (P35968 with tags, fused parts or gaps DEL940-989/E990V limits assumed): as above
T1 sequence (P11362 456-766 L457V/C488A/C584S): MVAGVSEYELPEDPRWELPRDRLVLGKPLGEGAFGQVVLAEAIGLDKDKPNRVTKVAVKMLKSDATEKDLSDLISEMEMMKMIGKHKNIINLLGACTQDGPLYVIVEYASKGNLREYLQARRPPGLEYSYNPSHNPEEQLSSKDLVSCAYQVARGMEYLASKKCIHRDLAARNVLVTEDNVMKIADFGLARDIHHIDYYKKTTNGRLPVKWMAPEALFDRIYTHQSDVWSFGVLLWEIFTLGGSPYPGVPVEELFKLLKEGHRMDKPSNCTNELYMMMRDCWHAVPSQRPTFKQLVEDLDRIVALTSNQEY
T3 sequence (P06239 223-509 P223M/C224D): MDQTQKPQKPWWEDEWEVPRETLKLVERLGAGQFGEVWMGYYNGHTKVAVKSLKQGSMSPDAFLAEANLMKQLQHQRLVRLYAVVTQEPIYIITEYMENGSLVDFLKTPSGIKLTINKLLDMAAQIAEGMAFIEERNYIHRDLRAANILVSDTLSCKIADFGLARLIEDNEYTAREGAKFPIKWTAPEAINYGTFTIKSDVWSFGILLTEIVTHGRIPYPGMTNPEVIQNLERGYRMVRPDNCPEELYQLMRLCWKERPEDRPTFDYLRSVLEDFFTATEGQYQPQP

Row | SMILES | inhibition at 1 µM [1] [%] | inhibition at 1 µM (LCK tyrosine kinase; [7]) [%] | Ki [2] [nM] | IC50 ([4]; MV522) [nM] | Ki [5] [nM] | IC50 ([3]; HUVEC, read-out: HUVEC IC50) [nM] | further results
1 | Cc1cc(NC(=O)c2cccc(CSc3cnccn3)c2)ccc1C(C)C [Example A-3, N-(4-Isopropyl-3-methylphenyl)-3-[(pyrazin-2-yl)sulfanylmethyl]benzamide] | – | – | 4.5 | > 10000 | 32 | 240 | melting point: 69 to 73 °C
2 | O=C(Nc1ccc(N2CCNCC2)c(C(F)(F)F)c1)c1ccc(F)c(OCc2cncc(-c3ccco3)c2)c1 [EE-1, 4-Fluoro-3-(5-furan-2-yl-pyridin-3-ylmethoxy)-N-(4-piperazin-1-yl-3-trifluoromethyl-phenyl)-benzamide dihydrochloride] | 32 | 53 | – | – | – | – | Ki [2, 8]: 3.4 nM; IC50 [3, 9]: 180 nM
3 | Cc1cc(NC(=O)c2cccc(CSc3ncnc4[nH]ncc34)c2)ccc1C(C)C [Example A-5, N-(4-Isopropyl-3-methylphenyl)-3-[(1H-pyrazolo[3,4-d]pyrimidin-4-yl)sulfanylmethyl]benzamide] | – | – | 1 | > 10000 | 8.64 | 270 | melting point: 187 to 189 °C; inhibition at 5 µM (LCK tyrosine kinase; @ 5 μM, read-out: LCK-P percent inhibition): 37%
4 | COc1ccc(/C=C/c2cc(CCc3cccc(C(=O)Nc4ccc(C(C)C)c(C)c4)c3)[nH]n2)cc1OC [Example F-3, 3-(2-{5-[(E)-2-(3,4-Dimethoxyphenyl)ethenyl]-2H-pyrazol-3-yl}-ethyl)-N-(3-methyl-4-isopropylphenyl)-benzamide] | 83 | 84 | 0.31 | > 10000 | 1.01 | 10 | –
5 | CC(=O)Nc1ccc(CCc2cccc(C(=O)Nc3ccc(N4CCNCC4)c(C(F)(F)F)c3)c2)cn1 [AA-1, 3-[2-(6-Acetylamino-pyridin-3-yl)-ethyl]-N-(4-piperazin-1-yl-3-trifluoromethylphenyl)-benzamide dihydrochloride] | 39 | 44 | – | – | – | – | inhibition at 0.05 µM ([5]; @ 50 nM, read-out: FLVK-P percent inhibition): 59%; Ki [2, 8]: 2.8 nM; IC50 [3, 9]: 25 nM
6 | COc1ccc(Nc2cc(CSc3cccc(NC(=O)c4ccc(O)c(C(C)(C)C)c4)c3)[nH]n2)cn1 [Example W-1, 3-t-Butyl-4-hydroxy-N-{3-[5-(6-methoxy-pyridin-3-ylamino)-2 H-pyrazol-3-ylmethylsulfanyl]-phenyl}-benzamide] | 67 | 88 | – | – | – | – | Ki [2, 8]: 0.12 nM; IC50 [3, 10]: 23 nM
7 | COc1ccc(Nc2cc(CCc3cccc(C(=O)Nc4cnc(N(C)C)c(C(F)(F)F)c4)c3)[nH]n2)cn1 [Example G-6, N-(6-Dimethylamino-5-trifluoromethylpyridin-3-yl)-3-{2-[5-(6-methoxypyridin-3-yl)amino-2H-pyrazol-3-yl]ethyl}-benzamide] | 74 | – | – | 10000 | 1.98 | 12 | IC50 [3, 6]: 59 nM; Ki (LCK tyrosine kinase): 65 nM
8 | CNS(=O)(=O)c1ccc(Nc2cc(CCc3cccc(C(=O)Nc4ccc(C(C)C)c(C)c4)c3)[nH]n2)cc1 [Example G-1, N-(4-Isopropyl-3-methyl-phenyl)-3-{2-[5-(4-(methylsulfamoyl)phenylamino)-2H-pyrazol-3-yl]-ethyl}-benzamide] | 81 | – | – | > 10000 | 0.592 | 10 | IC50 [3, 6]: 435 nM; Ki (LCK tyrosine kinase): 90 nM
9 | CC(=O)Oc1ccc(C(=O)Nc2cccc(OCc3cncc4ccccc34)c2)cc1C(C)(C)C [Example X-3, 4-Acetoxy-3-t-butyl-N-[3-(isoquinolin-4-ylmethoxy)phenyl]-benzamide] | – | – | – | – | – | – | IC50 ([4]; MV522 lung cancer cells): 4600 nM; Ki [2, 8]: 2.2 nM; IC50 [3, 10]: 30 to 100 nM; melting point: 83 to 86 °C
10 | C/C=C/c1cc(COc2cc(C(=O)Nc3ccc(N4CCCC4)c(C(F)(F)F)c3)ccc2F)[nH]n1 [Example F-4, 4-Fluoro-3-[{5-((E)-1-propenyl)-2H-pyrazol-3-yl}methoxy]-N-[4-(pyrrolidin-1-yl)-3-trifluoromethylphenyl]benzamide] | 18 | 19 | – | 2600 | – | 63 | –
11 | COc1cc(NC(=O)c2cccc(CSc3ncnc4[nH]ncc34)c2)cc(OC)c1OC [Example B-1, N-(3,4,5-Trimethoxyphenyl)-3-[(1H-pyrazolo[3,4-d]pyrimidin-4-yl)sulfanylmethyl]benzamide] | – | – | 25 | – | 111 | – | Ki ([1]; read-out: FGF-P Ki): 87000 nM

Further lines, with some results ahead:

Row | inhibition at 1 µM [1] [%] | inhibition at 1 µM (LCK tyrosine kinase; [7]) [%] | Ki [2] [nM] | IC50 ([4]; MV522) [nM] | Ki [5] [nM] | SMILES | IC50 ([3]; HUVEC, read-out: HUVEC IC50) [nM] | further results
12 | 21 | 13 | – | – | – | O=C(Nc1ccc(-n2cccn2)c(C(F)(F)F)c1)c1ccc(F)c(OCc2cccnc2)c1 [Example R-22, 4-Fluoro-N-(4-pyrazol-1-yl-3-trifluoromethyl-phenyl)-3-(pyridin-3-ylmethoxy)-benzamide] | – | inhibition at 0.05 µM [2]: 52%; IC50 [3, 6]: > 100 nM
13 | 61 | 38 | 1.6 | – | – | COc1ccc(Nc2cc(COc3cc(C(=O)Nc4ccc(-n5ccnc5)c(C(F)(F)F)c4)ccc3F)[nH]n2)cn1 [Example J-1, 4-Fluoro-N-[4-(imidazol-1-yl)-3-trifluoromethylphenyl]-3-[5-(6-methoxypyridin-3-yl)amino-2H-pyrazol-3-ylmethoxy]-benzamide] | 37 | –
14 | – | – | 3.1 | > 10000 | – | O=C(Nc1cc(Cl)c(N2CCOCC2)c(Cl)c1)c1ccc(F)c(OCc2cccnc2)c1 [Example R-18, N-(3,5-Dichloro-4-morpholin-4-yl-phenyl)-4-fluoro-3-(pyridin-3-ylmethoxy)-benzamide] | 18 | melting point: 209 to 211 °C
15 | 54 | 44 | 0.92 | – | – | COc1cc(NC(=O)c2ccc(F)c(OCc3cc(Nc4ccc(OC)nc4)n[nH]3)c2)cc(C(F)(F)F)c1 [Example J-3, 4-Fluoro-3-[5-(6-methoxypyridin-3-yl)amino-2H-pyrazol-3-yl]methoxy-N-(3-methoxy-5-trifluoromethyl-phenyl)-benzamide] | 50 | –
16 | 79 | – | 1.6 | 10000 | 1.46 | Cc1cc(NC(=O)c2cccc(OCc3cncc4ccccc34)c2)ccc1C(C)C [Example K-1, N-(4-Isopropyl-3-methyl-phenyl)-3-(Isoquinolin-4-yl)methoxy-benzamide] | 40 | IC50 [3, 6]: > 1000 nM; Ki (LCK tyrosine kinase): 59 nM
17 | 41 | 26 | 8.8 | 3100 | – | O=C(Nc1ccc(N2CCNCC2)c(C(F)(F)F)c1)c1ccc(F)c(OCc2cncc3ccccc23)c1 [Example R-15, 4-Fluoro-N-(4-piperazin-1-yl-3-trifluoromethyl-phenyl)-3-(isoquinolin-4-ylmethoxy)-benzamide] | 36 | IC50 [3, 6]: 130 nM
18 | – | – | 2.3 | 5600 | – | O=C(Nc1ccc(N2CCOCC2)c(C(F)(F)F)c1)c1ccc(F)c(OCc2cnc3ccccc3c2)c1 [Example R-16, 4-Fluoro-N-(4-morpholin-4-yl-3-trifluoromethyl-phenyl)-3-(quinolin-3-ylmethoxy)-benzamide] | 13 | melting point: 81 to 84 °C
19 | – | – | – | 2600 | – | CN1CCN(c2ccc(NC(=O)c3ccc(F)c(OCc4cccnc4)c3)cc2C(F)(F)F)CC1 [Example R-20] | 155 | inhibition at 0.05 µM [2]: 19%; melting point: 61 to 66 °C
20 | 59 | 82 | – | 8100 | 3.49 | Cc1ccc(C(=O)Nc2ccc(C(C)C)c(C)c2)cc1OCc1cncc2ccccc12 [Example K-11, N-(4-Isopropyl-3-methyl-phenyl)-4-methyl-3-(Isoquinolin-4-yl)methoxy-benzamide] | 37 | –
21 | 70 | 48 | – | 4700 | 2.96 | Cc1cc(NC(=O)c2ccc(Cl)c(OCc3cncc4ccccc34)c2)ccc1C(C)C [Example K-12, N-(4-Isopropyl-3-methyl-phenyl)-4-chloro-3-(Isoquinolin-4-yl)methoxy-benzamide] | 27 | –
